Measurements reported in a melting point compilation (Tetko et al.; mined from patent text by program, amines drawn as free bases though some values may be those of a salt).

SMILES | melting point [°C]
CCCc1ccc(-c2nc(C)c(C(C)=NNC(=N)N)s2)cc1 | 256 to 257
Cc1cc(-c2nnn(C)n2)cc(C)c1OCCCC(O)c1nccn1C (configuration not stated) | 151 to 154
CC(C)(C)CC(C)(C)c1ccc(O)c(-n2nc3ccc(C(F)(F)F)cc3n2)c1 | 80 to 81
Cc1cc([N+](=O)[O-])c(Cl)c([N+](=O)[O-])c1CBr | 115 to 120
CN(C)CCNCCc1ccc(Nc2ncc3c(n2)-c2ccccc2C(c2cccc(Br)c2)C3)cc1 (configuration not stated) | 75 to 77
COCCn1cc(C(=O)NCc2ccc(Cl)cc2)c(=O)c2cc(CN(C)C[C@@H](O)c3ccccc3)sc21 | 105 to 106
CC(C)CN1C(=O)C(C)(C)C(=O)Nc2cc(C=O)ccc21 | 154 to 155
Cc1ccc2nc(C3(c4ccc(S(N)(=O)=O)cc4)C=C(C(F)(F)F)NN3)sc2c1 (configuration not stated) | 257 to 258
O=c1c2[nH]c(Cl)nc2n(CC2CC2)c(=O)n1CC1CC1 | 220
COC(=O)C(C)(N)Cc1c[nH]c2ccc(OC)cc12 (racemic) | 131 to 132
Cn1nc(Br)c(Br)c1Br | 85 to 86
NS(=O)(=O)c1ccc(-n2nc(C(F)(F)F)cc2OS(=O)(=O)C(F)(F)F)cc1 | 114 to 115
O=C(Oc1cccc2c(-c3ccccc3)c3cccc(OC(=O)C4CCCCC4)c3c(OC(=O)C3CCCCC3)c12)C1CCCCC1 | 235
CC(C)=Cc1sc(C#N)c2c1C(=O)CC(C)(C)C2 | 115 to 117
O=S(Cc1ccccc1)c1ccccc1 (configuration not stated) | 123 to 126
CSc1nccc(Oc2ccc(NC(=O)c3cccc(OC(C)(C)C)c3)c3ccccc23)n1 | 135 to 136
CCCC(NC(=O)Cc1ccc(C(=O)O)c(OCC)c1)c1ccccc1N1CCCCC1 (configuration not stated) | 87 to 89
c1csc(CNc2nc(-n3ccnc3)nc3ccccc23)c1 | 234 to 235
CON(C)C(=O)Nc1ccc(OCc2ccc(C(C)C)cc2)cc1 | 87.5 to 88
CCC(=O)Oc1ccc(S(=O)(=O)N2c3ccccc3-c3ccc(F)cc3C2CC)cc1 (configuration not stated) | 111 to 112
C=CCc1c(O)c(C(C)=O)cc(C(C)=O)c1O | 84 to 86
O=C1OCC2=C1C(c1ccccc1[N+](=O)[O-])C1=C(COC1=O)N2 | 273 to 274

SMILES | melting point [°C]
COc1cc(-c2ccccc2C)ccc1C(=O)N1Cc2ccc(C(=O)O)n2Cc2ccccc21 | 144 to 146
CN(c1cc(OC(F)(F)F)cc2cc(C(=O)O)[nH]c12)S(=O)(=O)c1cccs1 | 245 to 246
C[C@@H](N(CC(=O)O)C(=O)c1ccc(C(F)(F)F)cc1)[C@](O)(Cn1cncn1)c1ccc(Cl)cc1Cl (relative stereo) | 140 to 142
O=C(CC(NC(=O)c1ccccc1)c1ccccc1)Nc1n[nH]c(=S)s1 (configuration not stated) | 266 to 267
CCCCCCCCCCCCCCCCCCOc1cc(C(=O)O)cc([N+](=O)[O-])c1 | 101 to 103
CC(C)(C)CCN1C(=O)C(NC(=O)Oc2ccccc2)C(=O)N(c2ccccc2F)c2ccccc21 (configuration not stated) | 199 to 200
CCS(=O)(=O)c1ccc(SC2SCC(OC(C)=O)C(OC(C)=O)C2OC(C)=O)cc1 (configuration not stated) | 136 to 137
COc1ccc2c(c1)Sc1ccc(SC)cc1C(=O)C2 | 127
CC(CCC(=O)O)(c1ccc(OCc2ccc3ccccc3n2)c(Cl)c1)c1ccc(OCc2ccc3ccccc3n2)c(Cl)c1 | 91 to 94
Cc1cc(-c2c(-c3ccc(S(C)(=O)=O)cc3)cnn(CC(F)(F)F)c2=O)ccc1F | 88 to 91
COC(=O)c1cccc(OC)c1OS(=O)(=O)NC(=O)Nc1nc(OC)cc(OC)n1 | 169 to 170
CS(=O)(=O)c1cc(F)cc2c3c(n(Cc4ccc(Cl)cc4)c12)[C@@H](CC(=O)O)CC3 | 175
CCC(C)C(=O)NC1CCC(CCN2CCN(c3nccc4c3OCC4)CC2)CC1 (racemic) | 196
CCCCn1c(=S)[nH]c2sccc2c1=O | 200 to 203
CCCc1cc(C(=O)NC2=NC(=O)CN2C)ccc1OC(C(=O)NS(=O)(=O)c1ccc(C(C)C)cc1)c1ccc2c(c1)OCO2 (configuration not stated) | 137 to 139
CCOC(=O)c1cc(O)ccc1CCc1cc2cc(C#N)ccc2o1 | 133 to 135
CC(C)(C)c1cccc(C(=O)O)c1 | 96 to 97
N#Cc1cc(N)ccc1N1CCOCC1 | 147 to 148
CCOc1cc(-c2cc(C(F)(F)F)n3ncc(C(=O)Nc4nc(C)c(S(=O)(=O)NC(C)(C)CO)s4)c3n2)ccc1C(F)(F)F | 276
O=S(=O)(Nc1ccc2c(OCc3ccc(C4CCCCC4)cc3)cccc2c1)C(F)(F)F | 108 to 110
COC(=O)c1nc(OC)sc1-c1ccccc1 | 86 to 88
Cc1nc(N2CCOCC2)c2n1-c1ccc(Cl)cc1C(c1ccccc1F)=NC2 | 172 to 174

SMILES | melting point [°C]
CCc1scc(C(=O)OC)c1NC(C)=O | 85 to 86
O=S(=O)(O)c1ccccc1Nc1ccnc2cc(Cl)ccc12 | > 300
O=CN1CCN(CCSc2nc3ccccc3[nH]2)CC1 | 146 to 148
O=C(CCC1CCCCCCCCCCC1=O)C1=C(O)CSC1=O (configuration not stated) | 93 to 95
Cc1ccc(C2CC(=O)c3c(C)coc3C2)cc1 (configuration not stated) | 113 to 114
CCOC(=O)C1=C(C)NC(c2ccc(OC)cc2)=C(C(=O)OCC)C1c1cccc([N+](=O)[O-])c1 (configuration not stated) | 166 to 167
COc1ccc(-c2cn(-c3cc4c(=O)n(NS(C)(=O)=O)c(=O)[nH]c4cc3C(F)(F)F)cn2)cc1 | 293 to 294
CCOc1nn(Cc2ccc(OC)c(OCc3nc(-c4ccccc4)oc3C)c2)cc1CCC(=O)O | 136 to 137
CCCCCS(=O)(=O)NC(=O)CCc1ccc(OC(C)C)cc1OCc1ccc(Cl)cc1Cl | 120
CCCOc1nc(N)c2ncn(C3CCCCO3)c2n1 (configuration not stated) | 138 to 140
Cc1ccc(S(=O)(=O)Oc2ccc(S(=O)(=O)C3=C(C(C)C)OCC3)cc2)cc1 | 103
O=C1CC(CO)C(c2c(Cl)cccc2Cl)N1Cc1ccccc1 (configuration not stated) | 122 to 126
O=[N+]([O-])c1cccc(-c2ccnc3c(-c4ccsc4)cnn23)c1 | 148 to 150
Cc1ccccc1-c1cccc(C=CC(=O)O)c1 | 124 to 125
Cc1nc(-c2ccccc2)c(-c2ccccc2)nc1N(C)CCCCOCC(=O)OC(C)(C)C | 48 to 51
CCC(CC)N(Cc1ccc(C(=O)OC)cc1)S(=O)(=O)c1ccc(Cl)cc1 | 95 to 97
Cc1nc2c(N)nc3ccc(OCc4ccccc4)cc3c2n1CCCCNC(=O)c1ccccc1 | 244 to 245
CNC(=NC#N)NCc1cccnc1 | 183 to 184
CNC1=NS(=O)N=C1CCS (configuration not stated) | 191 to 193
CCCn1nc2c(N)nc3ccccc3c2c1CCCCS(C)(=O)=O | 155 to 157
CC(=O)OCC1CC(n2c(Br)nc3cc(Cl)c(Cl)cc32)C(OC(C)=O)C1OC(C)=O (configuration not stated) | 156 to 159
CN(C(=O)c1ccc([N+](=O)[O-])cc1)C1N(C)C(c2ccc(F)cc2)=NC1(C(F)(F)F)C(F)(F)F (configuration not stated) | 174 to 175

The remaining lines, values ahead:

melting point [°C] | SMILES
174 to 176 | CC(C)(C(=O)OCC(=O)c1ccccc1)n1c(=O)[nH]c2cc(F)c(F)cc2c1=O
255 to 256 | CC(=O)Oc1c(C)cc(C(=O)c2ccc(C(=O)c3cc(C)c(OC(C)=O)c(C)c3)cc2)cc1C
39 to 40 | Cc1cccc(CCCCCCCCC(=O)O)c1
192 to 194 | CC(=O)n1ccc(-c2ccc(C(=O)N3Cc4cccn4Cc4ccccc43)cc2)n1
222 to 223 | CC(=O)Nc1nc(CCc2ccc(NC(=NC(=O)OC(C)(C)C)NC(=O)OC(C)(C)C)cc2)c(C(=O)O)s1
199 to 201 | CC1(O)c2ccccc2C2=NCCCN21 (configuration not stated)
123 to 125 | CCSc1cc(C)nc(SCC)c1NC(=O)CCCSc1nc2ccccc2o1
78 to 80 | CCOc1c(NC(C)(C)CC)c(=O)c1=O
129 | Cn1c(=O)n(Cc2ccccc2)c2cc(Cn3ccnc3)ccc21
159 to 161 | Cc1cc(-c2ccccc2C)ccc1NC(=O)c1ccc2n1Cc1ccccc1N(C(=O)COc1ccc(Cl)cc1)C2
170 to 173 | Cc1cc(=O)c(-c2ccc(Oc3ccc(S(C)(=O)=O)cc3)cc2)c(C)o1
94 to 96 | Cc1nc(N)nc(N[C@@H]2CCc3ccccc32)n1
81 to 82 | O=C(C1CCCCC1)N1CC2CC2(c2ccccc2)C1 (configuration not stated)
140 | CNC(=O)c1cc(C(=O)c2ccccc2)ccc1N
173 to 174 | O=C(O)Cc1ccc2noc(-c3ccccc3)c2c1
59 to 62 | COc1cc(OC)cc(C2=NC(CO)Cc3cc(OC)c(OC)cc32)c1 (configuration not stated)

melting point [°C] | SMILES
164 | N#CC(C(N)=S)=C(N)N1CCCC1
106 to 108 | O=C(O)Cc1ccccc1SCc1cc(F)ccc1F
242 to 244 | O=C(NCCc1ccccc1)c1ccc(S(=O)(=O)Nc2ccccc2C(=O)O)cc1
50 to 52 | Cc1oc2cccc(OCC#N)c2c1C
225 to 233 | NC(=O)c1sc2nccc(N3CCN(C(c4ccccc4)c4ccccc4)CC3)c2c1N
158 | Cc1cc(C(N)=O)co1
175 | O=c1[nH]c2cc(Cl)c(Cl)cc2n1CCCO
93 to 95 | COc1ccc2c(c1)CC(C)(CN1CCC(c3ccccc3)CC1)NC2=O (configuration not stated)
178 to 180 | NS(=O)(=O)c1ccc2c(c1)CNC(C1CCCCC1)N2 (configuration not stated)
275 to 285 | Cc1ccc2c(-c3cnc4[nH]cc(C(=O)N[C@H](C)C(=O)N5CC(C#N)C5)c4n3)nn(C)c2n1
86 to 88 | CCC(=O)Nc1nc(CN2CCC(OC(c3ccccc3)c3ccccc3)CC2)cs1
234 to 235 | O=C(Nc1noc2ccccc12)N1CCN(c2nc(-c3ccccc3)ns2)CC1
166 to 168 | COc1ccc2cc3c(N)nn(CCN4CCOCC4)c3nc2c1
139 to 141 | O=C1N(Cc2ccccc2)c2cc(Cl)ccc2N=C2CCCC12Cc1ccccc1 (configuration not stated)
> 275 | CC(=O)c1ccc(-n2c(-c3cc(-c4ccccc4)c(N4CCOCC4)s3)nc3ccccc3c2=O)cc1
